{"source": "patent US11298353B2", "about": "“Anti-inflammatory composition” (OSTEONEUROGEN INC., priority 2019, dated 2022)", "key": {"[1]": {"test_system": "diseased human lung fibroblasts (DHLFs)", "test": "Transcriptome analysis of TGF-β-treated diseased human lung fibroblasts", "assay_type": "cell-based", "conditions": "TGF-β 10 ng/ml + compound 50 μM, genes up-regulated at p<0.005", "method": "Using diseased human lung fibroblasts (DHLFs) isolated from idiopathic pulmonary fibrosis patients, transcriptomes were analyzed comparatively between a group treated with TGF-β (10 ng/ml) and a group treated with TGF-β (10 ng/ml)+the compound (Formula 2) (50 μM) of the present invention."}, "ONGHEPA1 cell line [2]": {"test_system": "ONGHEPA1 cell line", "test": "Reactive oxygen species production in TGF-β-treated hepatic stellate cells (H2DCFDA staining)", "assay_type": "cell-based, mouse", "conditions": "TGF-β 10 ng/ml + compound 50 μM", "method": "(§1) Using the ONGHEPA1 cell line, the production of reactive oxygen species (ROS) in a group treated with TGF-β (10 ng/ml) and a group treated with TGF-β (10 ng/ml)+the compound (Formula 2; 50 μM) of the present invention was compared by cell staining H2DCFDA (ThermoFischer, D399) which is a reactive oxygen species staining reagent, and the expression of CCL2 and CCL7 was compared by real-time PCR."}, "RAW264.7 cell line [3]": {"test_system": "RAW264.7 cell line", "test": "Expression of inflammatory factors in LPS-treated macrophages (real-time PCR or ELISA)", "assay_type": "cell-based", "conditions": "LPS 100 ng/ml + compound 25 or 50 μM, 24 hours", "text": "In order to confirm the effect of the compound of the present invention in a special anti-inflammatory model, the anti-inflammatory effect of the compound of the present invention was examined using the RAW264.7 cell line (macrophage cell line).\nUsing the RAW264.7 cell line, the expression of inflammatory factors, INFα, IL-1β, CCL2 (MCP-1), CCL7 (MCP-3), CXCL2, CHOP and NOX1, in a group treated with LPS (lipopolysaccharide) and a group treated with LPS+the compound (Formula 2) of the present invention, was compared by real-time PCR or ELISA.\n(§2) Specifically, the RAW264.7 cell line was cultured in RPMI liquid medium, and then divided into a normal control group (untreated), a group treated with LPS (100 ng/ml), and a group treated with the compound of the present invention (cells treated with 100 ng/ml of LPS and treated with 25 or 50 μM of the compound of the present invention). Each of the test groups treated was incubated for 24 hours, and then total RNA was extracted from the cell of each test group and synthesized into cDNA per 1 μg of total RNA, and real-time PCR for each inflammatory factor was performed. The real-time PCR was performed for […], and then the obtained data were statistically processed using t-test."}, "RAW264.7 cell line [4]": {"test_system": "RAW264.7 cell line", "test": "TNFα expression in macrophages treated with various concentrations of LPS (real-time PCR)", "assay_type": "cell-based", "conditions": "LPS 100 ng/ml to 10 μg/ml + compound 50 μM", "method": "as §2\nIn addition, according to the same method as described above, the RAW264.7 cell line was treated with various concentrations (100 ng/ml to 10 μg/ml) of LPS, and the effect of treatment with 50 μM of the compound (Formula 2) of the present invention was examined."}, "ONGHEPA1 cell line [5]": {"test_system": "ONGHEPA1 cell line", "test": "NOX4 expression in TGF-β-treated hepatic stellate cells (real-time PCR, ICC)", "assay_type": "cell-based, mouse", "conditions": "TGF-β 10 ng/ml + compound 50 μM, real-time PCR and ICC", "method": "Using the ONGHEPA1 cell line (KCTC13086BP) which is a mouse hepatic stellate cell line, the expression of NOX4 in a group treated with TGF-β (10 ng/ml) and a group treated with TGF-β (10 ng/ml)+the compound (Formula 2; 50 μM) of the present invention was compared by real-time PCR and immunocytochemistry (ICC)."}, "ONGHEPA1 cell line [6]": {"test_system": "ONGHEPA1 cell line", "test": "CCL2 and CCL7 expression in TGF-β-treated hepatic stellate cells (real-time PCR)", "assay_type": "cell-based, mouse", "conditions": "TGF-β 10 ng/ml + compound 50 μM", "method": "as §1"}, "CD14 [7]": {"test_system": "CD14", "test": "CD14 expression in LPS-treated RAW264.7 cells (Western blot)", "assay_type": "cell-based", "conditions": "LPS 100 ng/ml + compound 50 μM, 5 to 15 minutes after LPS", "method": "In addition, in order to examine the effect of the compound of the present invention on the expression of CD14, the expression of CD14 in a group treated with LPS (100 ng/ml) and a group treated with 50 μM of the compound (Formula 2) of the present invention was compared by Western blot analysis."}, "CD14 [8]": {"molecular_target": "T1, CD14 (Mus musculus, UniProt P10810)", "T1 construct": "endogenous in cells; host or cells: RAW264.7", "T1 sequence (P10810 16-336)": "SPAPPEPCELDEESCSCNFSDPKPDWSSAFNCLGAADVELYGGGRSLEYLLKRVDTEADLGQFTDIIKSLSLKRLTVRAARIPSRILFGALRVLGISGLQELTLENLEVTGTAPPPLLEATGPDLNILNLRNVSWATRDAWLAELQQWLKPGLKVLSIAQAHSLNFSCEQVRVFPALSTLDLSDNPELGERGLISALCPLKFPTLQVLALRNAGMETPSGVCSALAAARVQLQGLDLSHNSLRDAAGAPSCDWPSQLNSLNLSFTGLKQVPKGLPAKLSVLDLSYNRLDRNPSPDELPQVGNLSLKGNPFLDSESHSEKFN", "test": "CD14 FITC immunofluorescence staining in LPS-treated RAW264.7 cells", "assay_type": "cell-based", "conditions": "LPS 100 ng/ml + compound 50 μM", "text": "To verify this determination, the change in expression of an early inflammatory response stage factor (a factor involved in the early stage of LPS-induced inflammatory response) by treatment with the compound (Formula 2) of the present invention was examined by immunofluorescence staining using FITC.\nLooking at the control group in FIG. 9 (see FIG. 10 which is an enlarged view), it can be seen that FITC fluorescence is concentrated on the surface (membrane portion) of the cell. […] However, looking at the LPS-treated group (see FIG. 10 which is an enlarged view), it can be seen that the cell changes into a circular shape and FITC fluorescence is distributed throughout the cell without being concentrated on the surface of the cell. This means that when treated with LPS, CD14 did bind to LPS and endocytosis occurred. In the case of the group treated with the compound of the present invention (see FIG. 12 which is an enlarged view), the same pattern as that in the control group appeared despite LPS treatment."}}, "data": [{"smiles": "COc1ccc(-c2cc(=O)c3c(O)c(OC)c(OCCN4CCNC(=O)C4)cc3o2)cc1OC", "note": "[Formula 2]", "values": [{"measurement": "inhibition of TGF-β up-regulated gene expression: NOX4", "setting": "[1]", "value": "selected genes included NOX4"}, {"measurement": "production of reactive oxygen species", "setting": "ONGHEPA1 cell line [2]", "value": "inhibited"}, {"measurement": "expression of CCL2 (MCP-1)", "setting": "RAW264.7 cell line [3]", "value": "decreased"}, {"measurement": "expression of CCL7 (MCP-3)", "setting": "RAW264.7 cell line [3]", "value": "decreased"}, {"measurement": "expression of CHOP", "setting": "RAW264.7 cell line [3]", "value": "decreased"}, {"measurement": "expression of CXCL2", "setting": "RAW264.7 cell line [3]", "value": "decreased"}, {"measurement": "expression of IL-1β", "setting": "RAW264.7 cell line [3]", "value": "decreased"}, {"measurement": "expression of INFα", "setting": "RAW264.7 cell line [3]", "value": "decreased"}, {"measurement": "expression of NOX1", "setting": "RAW264.7 cell line [3]", "value": "decreased"}, {"measurement": "expression of TNFα", "setting": "RAW264.7 cell line [4]", "value": "blocked the expression of TNFα regardless of the concentration of LPS"}, {"measurement": "increase in the expression of NOX4", "setting": "ONGHEPA1 cell line [5]", "value": "inhibited"}, {"measurement": "expression of CCL2", "setting": "ONGHEPA1 cell line [6]", "value": "inhibited"}, {"measurement": "expression of CCL7", "setting": "ONGHEPA1 cell line [6]", "value": "inhibited"}, {"measurement": "increase in expression of CD14", "setting": "CD14 [7]", "value": "decreased"}, {"measurement": "activity of CD14 involved in the early stage of inflammatory response", "setting": "CD14 [8]", "value": "inhibited"}, {"measurement": "interaction between CD14 and LPS (CD14 endocytosis pattern)", "setting": "CD14 [8]", "value": "blocked the interaction between CD14 and LPS"}]}]}
